Series [1] can be described thus: Thermodynamic aqueous solubility in fasted state simulated intestinal fluid (FaSSIF). Type of series: physicochemical. The note with it: fasted state simulated intestinal fluid (FaSSIF), pH 6.5, thermodynamic from solid, 25° C., 24 hours equilibration, HPLC. How it is done: Initial screening of candidate compounds was performed using in vitro assays to determine potency, metabolic stability and solubility in biologically relevant fluids. Potency was assessed using a viability assay based on the survival of the J774 macrophage cell line. Macrophages are closely related to osteoclasts and have been used previously as a model system for osteoclast survival (see, e.g., Luckman et al., 1998). Like osteoclasts, J774 macrophages are dependent on continued NFκB activation for survival, thereby providing a valuable screen for compounds with anti-inflammatory activity. Metabolic stability was measured by determining the rate of disappearance of compound in the presence of human liver microsomal preparations, as quantified by LC-MS/MS. Solubility was measured by equilibration of the compound in fasted state simulated intestinal fluid (FaSSIF) and quantified by HPLC.
Thermodynamic aqueous solubility was measured by equilibration of a number of APSAP compounds, in the solid state, with fasted state simulated intestinal fluid (FaSSIF) and quantified by HPLC. Measurement of solubility in FaSSIF provides a valuable model for the prediction of drug dissolution following oral administration.
Preparation of blank FaSSIF: NaOH pellets (174 mg), NaH2PO4.2H2O (2.235 g), and NaCl (3.093 g) were dissolved in 500 mL of water. The pH was adjusted to 6.5 using 1 M NaOH solution.
Preparation of FaSSIF: Sodium taurocholate (165 mg) was dissolved in 25 mL blank FaSSIF. 0.6 mL of a solution containing 100 mg/mL lecithin in methylene chloride was added. The methylene chloride was eliminated under vacuum at about 40° C. The vacuum was drawn for 15 minutes at 250 mbar, followed by 15 minutes at 100 mbar. […] After cooling to room temperature, the solution was then adjusted to 100 mL with blank FaSSIF.
The suspension was equilibrated at 25° C. for 24 hours, and then the pH was measured. The suspension was then filtered through a glass fibre C filter into a 96-well plate. The filtrate was then diluted by a factor of 100. Quantification was made by HPLC with reference to a standard solution of compound at approximately 0.1 mg/mL in DMSO. Different volumes of the standard, diluted and undiluted sample solutions were injected. The solubility was calculated using the peak areas determined by integration of the peak found at the same retention time as the principal peak in the standard injection. Analysis was performed on an Agilent HP1100 series system equipped with a diode array detector and using ChemStation software vB.02.01-SR1.

Series [2] can be described thus: In vivo pharmacokinetics in rat, oral and intravenous. The conditions noted are these: 2.5 mg/kg; for half-life: read-out: T½ (converted). The arrangement: species or system Sprague-Dawley rats. Here is the method: Absorption and metabolic stability were studied using an in vivo pharmacokinetics assay. Drug levels were assessed using ultra-performance LC/TOF-MS.
Three male Sprague-Dawley rats, 200-300 g, were dosed per route. […] Test compound was formulated in 50:50 tetraethylene glycol:PBS for both routes. Animals were given free access to food throughout the study. On the day prior to dosing, the carotid artery was cannulated for sample collection and for the intravenous study, the jugular vein was cannulated to enable dosing.
Blood samples were taken from the carotid artery at the following time points and placed in heparinised tubes:
Oral dosing—predose, 0.25, 0.5, 1, 2, 4, 8 and 24 hours post dose.
IV dosing—predose, 0.08, 0.25, 0.5, 1, 2, 4 and 8 hours post dose.
Blood samples were centrifuged to obtain plasma, which was transferred to a separate container and frozen at −20° C.
Samples were thawed at room temperature and prepared by protein precipitation with acetonitrile in the ratio 1:2 with plasma, followed by centrifugation for 10 minutes at 16,100×g (Eppendorf 5415D, Eppendorf AG, Hamburg, Germany). The supernatants were collected for analysis. The standard samples were prepared similarly, after spiking blank rat plasma samples to study compound concentrations at 1, 2, 5, 10, 20, 50, 100, 200, 500 and 1000 ng/mL. In addition, extra samples were prepared from 0-1 hour i.v. samples by diluting 1/20 with 50% aqueous acetonitrile to avoid exceeding the linear range of the analytical method.
A Waters Acquity liquid ultra-performance chromatographic system (Waters Corp., Milford, Mass., USA) with autosampler, vacuum degasser and column oven was used. The analytical column used for all compounds was a Waters BEH C18, (2.1×50 mm, 1.7 μm, Waters Corp, Milford, Mass., USA) together with a 0.2 μm on-line filter before the column. The eluents were 0.1% acetic acid (A, pH 3.2) and methanol (B). Gradient elution from 5% to 60% B in two minutes was employed, followed by one minute gradient to 90% B and column equilibration. The flow rate was 0.5 mL/min and the column oven temperature was 35° C. The flow was directed to the MS via Water Acquity photo-diode-array (PDA) detector. LC/TOF-MS data were recorded with a Micromass LCT Premier XE time-of-flight (TOF) mass spectrometer (Micromass Ltd., Manchester, England) equipped with a LockSpray electrospray ionization source. A positive ionization mode of electrospray was used for all compounds. The mass range of m/z 100-900 was acquired. The W-option of the reflector was used, and the DRE (dynamic range enhancement) option was set to on. The mass spectrometer and HPLC system were operated under Micromass MassLynx 4.1 software. Leucine enkephalin ([M+H]^+ m/z 556.2771) was used as a lock mass compound for accurate mass measurements and was delivered into the LockSpray probe with a syringe pump. MassLynx 4.1 software was used for controlling the instrumentation and for data processing.
The pharmacokinetic parameters for the test compounds were calculated by WinNonlin Pro (Pharsight Corp, CA) using standard noncompartmental methods. The elimination phase half-life (t1/2) was calculated by least-squares regression analysis of the terminal linear part of the log concentration−time curve. The area under the plasma concentration−time curve (AUC) was determined by use of the linear trapezoidal rule up to the last measurable concentration and thereafter by extrapolation of the terminal elimination phase to infinity. The tentative oral bioavailability (F) was calculated by dividing the AUC (0-24 hours) after p.o. administration by the AUC (0-8 hours) after i.v. administration, i.e., F=AUC(p.o.)/AUC(i.v), and reported as percentages (%).

Results on 1 molecule are retold here after patent publication US8207167B2, “Aryl-phenyl-sulfonamide-phenylene compounds and their use” (PIMCO 2664 Limited, priority 2008, dated 2012).

The structures appear in SMILES notation. ≈ marks a conversion by molar mass, not a printed value. Where two headings read alike, the source gives them in different places.

Usually solubility stands for the dissolved amount per volume that the medium holds. Lower therefore signals a poorly soluble substance. In general, bioavailability refers to the share of a dose that reaches the circulation, judged against a reference dose that is usually intravenous. Higher therefore signals much systemic uptake.

Turning to `O=S(=O)(Nc1cccc(CO)c1)c1ccc(-c2ccc(Cl)cc2Cl)cc1` [ABD455, 2′,4′-dichloro-N-(3-(hydroxymethyl)phenyl)biphenyl-4-sulfonamide, reference compound], in series [1], the concentration in solution (solubility at 24 h) was 0.04 mg/mL (≈ 98 µM). Further, the figures for the AUC in series [2] (i.v.) and in series [2] (p.o.) were 9 ng/mL/min and 1.2 ng/mL/min, respectively. Also, the half-life in series [2] (male, Sprague-Dawley, plasma, iv, i.v.) was 31.8 min; in series [2] (male, Sprague-Dawley, plasma, po, p.o.), 48 min. The bioavailability in series [2] (male, Sprague-Dawley, plasma, oral, F=AUC(p.o.)/AUC(i.v.)) was found to be 3%.
